Assay results: patent publication US20050222200A1, “AMIDE DERIVATIVES AS ION CHANNEL LIGANDS AND PHARMACEUTICAL COMPOSITIONS AND METHODS OF USING THE SAME” (Renovis, Inc., priority 2003, published 2005)

target: T1, VR1 (Homo sapiens, UniProt Q8NER1); assay: High throughput calcium imaging assay of VR1 antagonists (Fura2, Flex Station, 96 well); type: cell-based; conditions: Table 1 activity class
T1 construct: expressed in transfected cells; host or cells: 293 cells ("293 neurons" [sic])
T1 sequence (Q8NER1 whole entry, species assumed): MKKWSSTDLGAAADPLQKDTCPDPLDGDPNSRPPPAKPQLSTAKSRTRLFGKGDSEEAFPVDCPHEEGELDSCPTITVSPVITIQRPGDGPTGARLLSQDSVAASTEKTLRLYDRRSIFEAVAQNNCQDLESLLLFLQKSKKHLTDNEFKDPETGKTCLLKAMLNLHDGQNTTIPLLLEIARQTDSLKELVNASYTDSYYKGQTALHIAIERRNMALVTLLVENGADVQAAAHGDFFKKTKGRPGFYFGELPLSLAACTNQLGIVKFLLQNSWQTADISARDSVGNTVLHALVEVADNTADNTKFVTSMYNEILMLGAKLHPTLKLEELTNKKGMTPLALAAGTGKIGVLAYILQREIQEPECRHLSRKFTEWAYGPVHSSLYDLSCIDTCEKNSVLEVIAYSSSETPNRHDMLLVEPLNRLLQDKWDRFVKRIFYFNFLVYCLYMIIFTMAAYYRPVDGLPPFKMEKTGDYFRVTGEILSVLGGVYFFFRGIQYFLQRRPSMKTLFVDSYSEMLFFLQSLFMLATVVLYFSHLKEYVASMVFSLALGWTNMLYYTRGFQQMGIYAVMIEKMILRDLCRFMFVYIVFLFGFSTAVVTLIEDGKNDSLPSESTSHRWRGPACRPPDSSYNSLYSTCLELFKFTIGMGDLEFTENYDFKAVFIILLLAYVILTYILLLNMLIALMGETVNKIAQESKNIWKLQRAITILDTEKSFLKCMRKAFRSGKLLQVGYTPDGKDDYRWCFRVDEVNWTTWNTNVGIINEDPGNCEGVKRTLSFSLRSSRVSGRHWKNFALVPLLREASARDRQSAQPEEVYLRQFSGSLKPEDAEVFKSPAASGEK

| Compound | inhibition of calcium ion influx induced by capsaicin stimulation |
| --- | --- |
| CCC/C=C/c1ccc(C(=O)NCC2CCCO2)cc1 (stereo not shown) [Compound 206] | + (compound exhibited 0-25% inhibition of calcium ion influx induced by capsaicin stimulation) |
| CCC/C=C/c1ccc(C(=O)NC2CCC(Cc3ccccc3)CC2)cc1 (stereo not shown) [Compound 207] | ++ (compound exhibited 25-50% inhibition of calcium ion influx induced by capsaicin stimulation) |
| CCC/C=C/c1ccc(C(=O)NCc2ccc3c(c2)OCO3)cc1 [Compound 208] | + (compound exhibited 0-25% inhibition of calcium ion influx induced by capsaicin stimulation) |
| CCC/C=C/c1ccc(C(=O)NCCN2CCOCC2)cc1 [Compound 209] | + (compound exhibited 0-25% inhibition of calcium ion influx induced by capsaicin stimulation) |
| CCC/C=C/c1ccc(C(=O)NCc2cccc(C(F)(F)F)c2)cc1 [Compound 211] | + (compound exhibited 0-25% inhibition of calcium ion influx induced by capsaicin stimulation) |
| CCC/C=C/c1ccc(C(=O)NCc2cc(OC)c(OC)c(OC)c2)cc1 [Compound 213] | + (compound exhibited 0-25% inhibition of calcium ion influx induced by capsaicin stimulation) |
| CCC/C=C/c1ccc(C(=O)NC2CCCC2)cc1 [Compound 214] | + (compound exhibited 0-25% inhibition of calcium ion influx induced by capsaicin stimulation) |
| CCC/C=C/c1ccc(C(=O)NCc2ccccn2)cc1 [Compound 216] | + (compound exhibited 0-25% inhibition of calcium ion influx induced by capsaicin stimulation) |
| CCC/C=C/c1ccc(C(=O)NCCc2ccc(OC)c(OC)c2)cc1 [Compound 217] | + (compound exhibited 0-25% inhibition of calcium ion influx induced by capsaicin stimulation) |
| CCC/C=C/c1ccc(C(=O)NC(C)(C)CO)cc1 [Compound 218] | + (compound exhibited 0-25% inhibition of calcium ion influx induced by capsaicin stimulation) |
| CCC/C=C/c1ccc(C(=O)NC(C)(C)c2ccccc2)cc1 [Compound 219] | + (compound exhibited 0-25% inhibition of calcium ion influx induced by capsaicin stimulation) |
| CCC/C=C/c1ccc(C(=O)NCC)cc1 [Compound 223] | +++ (compound exhibited 50-75% inhibition of calcium ion influx induced by capsaicin stimulation) |
| CCC/C=C/c1ccc(C(=O)NCc2cccs2)cc1 [Compound 224] | ++ (compound exhibited 25-50% inhibition of calcium ion influx induced by capsaicin stimulation) |
| CCC/C=C/c1ccc(C(=O)Nc2ccccc2C#N)cc1 [Compound 225] | + (compound exhibited 0-25% inhibition of calcium ion influx induced by capsaicin stimulation) |
| CCC/C=C/c1ccc(C(=O)Nc2cccc(N(C)C)c2)cc1 [Compound 226] | +++ (compound exhibited 50-75% inhibition of calcium ion influx induced by capsaicin stimulation) |
| CCC/C=C/c1ccc(C(=O)Nc2ccc(N(CC)CC)cc2)cc1 [Compound 227] | + (compound exhibited 0-25% inhibition of calcium ion influx induced by capsaicin stimulation) |
| CCC/C=C/c1ccc(C(=O)Nc2cccc(Cl)c2)cc1 [Compound 228] | +++ (compound exhibited 50-75% inhibition of calcium ion influx induced by capsaicin stimulation) |
| CCC/C=C/c1ccc(C(=O)Nc2ccccc2CCC)cc1 [Compound 230] | + (compound exhibited 0-25% inhibition of calcium ion influx induced by capsaicin stimulation) |

target: VR1 (Rattus norvegicus, UniProt O35433); assay: Calcium imaging assay: inhibition of capsaicin induced calcium influx in DRG neurons (Fura2, microscope); type: cell-based; design: endogenous in cells; host or cells: DRG neurons; conditions: capsaicin stimulation; class symbols per legend
Method: VR1 protein is a heat-gated cation channel that […] resulting in neuronal membrane depolarization and elevated intracellular calcium levels. Therefore the functional activity of compounds at the VR1 receptor may be determined by measuring changes in intracellular calcium levels in neurons such as the dorsal root ganglion.
DRG neurons were grown on PDL coated 96-well black-walled plates, in the presence of DMEM medium containing 5% Penstrep, 5% Glutamax, 200 μg/ml hygromycin, 5 μg/ml blasticide and 10% heat inactivated FBS. Prior to assay, cells were loaded with 5 μg/ml Fura2 in normal saline solution at 37° C for 40 minutes. Cells were then washed with normal saline to remove dye before commencement of the experiment.
The plated neurons were transferred into a chamber on the stage of a Nikon eclipse TE300 microscope after which neurons were allowed to attain a stable fluorescence for about 10 minutes before beginning the experiment. The assay consists of two stages, a pretreatment phase followed by a treatment phase. First, a solution of the test compound was added from a multivalve perfusion system to the cells for 1 minute (pretreatment). Immediately following, capsaicin (250 nM) was added in the presence of the test compound (treatment) for a specific period between 20 and 60 seconds.
Fura2 was excited at […] to indicate relative calcium ion concentration. Changes in wavelength measurements were made throughout the course of the experiment. The fluorescence ratio was calculated by dividing fluorescence measured at 340 nm by that at 380 nM. Data was collected using Intelligent Imaging’s Slidebook software. All compounds that inhibited capsaicin induced calcium influx greater than 75% were considered positives.
Fluorescence reflecting calcium ion influx is reduced.

VR1 (Rattus norvegicus, UniProt O35433), sequence (O35433 whole entry): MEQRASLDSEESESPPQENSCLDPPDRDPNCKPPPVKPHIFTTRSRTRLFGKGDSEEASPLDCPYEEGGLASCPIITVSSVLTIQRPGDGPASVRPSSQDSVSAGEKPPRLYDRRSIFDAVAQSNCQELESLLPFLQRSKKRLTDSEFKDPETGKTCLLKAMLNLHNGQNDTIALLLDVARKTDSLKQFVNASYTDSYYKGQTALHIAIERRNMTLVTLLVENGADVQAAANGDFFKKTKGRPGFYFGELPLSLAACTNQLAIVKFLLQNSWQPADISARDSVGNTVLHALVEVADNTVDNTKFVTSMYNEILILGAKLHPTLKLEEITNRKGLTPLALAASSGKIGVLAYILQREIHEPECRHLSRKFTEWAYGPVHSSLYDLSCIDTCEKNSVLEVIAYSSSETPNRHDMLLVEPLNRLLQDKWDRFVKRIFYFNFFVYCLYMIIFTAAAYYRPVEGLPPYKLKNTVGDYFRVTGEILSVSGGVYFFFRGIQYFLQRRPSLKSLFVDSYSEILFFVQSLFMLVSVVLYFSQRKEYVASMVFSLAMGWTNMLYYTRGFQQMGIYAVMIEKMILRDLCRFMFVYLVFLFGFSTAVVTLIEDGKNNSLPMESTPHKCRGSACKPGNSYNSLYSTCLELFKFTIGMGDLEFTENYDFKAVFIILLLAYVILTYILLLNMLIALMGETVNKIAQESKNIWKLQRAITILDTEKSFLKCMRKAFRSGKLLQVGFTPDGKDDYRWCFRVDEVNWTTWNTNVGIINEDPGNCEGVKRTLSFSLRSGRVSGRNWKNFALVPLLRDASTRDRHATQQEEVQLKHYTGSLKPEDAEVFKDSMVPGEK

| Compound | inhibition of calcium ion influx induced by capsaicin stimulation |
| --- | --- |
| CCC/C=C/c1ccc(C(=O)Nc2ccccc2Cl)cc1 [Compound 233] | + (compound exhibited 0-25% inhibition of calcium ion influx induced by capsaicin stimulation) |
| CCC/C=C/c1ccc(C(=O)Nc2cc(C)ccn2)cc1 [Compound 234] | + (compound exhibited 0-25% inhibition of calcium ion influx induced by capsaicin stimulation) |
| CCC/C=C/c1ccc(C(=O)NCC(C)C)cc1 [Compound 236] | + (compound exhibited 0-25% inhibition of calcium ion influx induced by capsaicin stimulation) |
| CCC/C=C/c1ccc(C(=O)NC2CCN(C)CC2)cc1 [Compound 237] | + (compound exhibited 0-25% inhibition of calcium ion influx induced by capsaicin stimulation) |
| CCC/C=C/c1ccc(C(=O)NCc2ccc(OC)c(OC)c2)cc1 [Compound 238] | + (compound exhibited 0-25% inhibition of calcium ion influx induced by capsaicin stimulation) |
| CCC/C=C/c1ccc(C(=O)NCc2cccc(F)c2)cc1 [Compound 239] | ++ (compound exhibited 25-50% inhibition of calcium ion influx induced by capsaicin stimulation) |
| CCC/C=C/c1ccc(C(=O)Nc2ccc(Cl)c(C(F)(F)F)c2)cc1 [Compound 242] | ++ (compound exhibited 25-50% inhibition of calcium ion influx induced by capsaicin stimulation) |
| CCC/C=C/c1ccc(C(=O)Nc2cccc(C#N)c2)cc1 [Compound 244] | ++ (compound exhibited 25-50% inhibition of calcium ion influx induced by capsaicin stimulation) |
| CCC/C=C/c1ccc(C(=O)Nc2ccccc2CCO)cc1 [Compound 245] | + (compound exhibited 0-25% inhibition of calcium ion influx induced by capsaicin stimulation) |
| CCC/C=C/c1ccc(C(=O)Nc2ccc(C(C)(C)C)cc2)cc1 [Compound 246] | + (compound exhibited 0-25% inhibition of calcium ion influx induced by capsaicin stimulation) |
| CCC/C=C/c1ccc(C(=O)Nc2ccc(C(C)C)cc2)cc1 [Compound 247] | + (compound exhibited 0-25% inhibition of calcium ion influx induced by capsaicin stimulation) |
| CCC/C=C/c1ccc(C(=O)Nc2ccc(CCCC)cc2)cc1 [Compound 248] | +++ (compound exhibited 50-75% inhibition of calcium ion influx induced by capsaicin stimulation) |
| CCC/C=C/c1ccc(C(=O)Nc2cc(OC)cc(C(F)(F)F)c2)cc1 [Compound 249] | + (compound exhibited 0-25% inhibition of calcium ion influx induced by capsaicin stimulation) |
| CCC/C=C/c1ccc(C(=O)Nc2ccc3[nH]ccc3c2)cc1 [Compound 252] | + (compound exhibited 0-25% inhibition of calcium ion influx induced by capsaicin stimulation) |
| CCC/C=C/c1ccc(C(=O)Nc2cc(CC)ccn2)cc1 [Compound 256] | + (compound exhibited 0-25% inhibition of calcium ion influx induced by capsaicin stimulation) |
| CCC/C=C/c1ccc(C(=O)Nc2ccc(Cl)nc2)cc1 [Compound 259] | + (compound exhibited 0-25% inhibition of calcium ion influx induced by capsaicin stimulation) |
| CCC/C=C/c1ccc(C(=O)Nc2ccc(OC)nc2)cc1 [Compound 260] | + (compound exhibited 0-25% inhibition of calcium ion influx induced by capsaicin stimulation) |
| CCC/C=C/c1ccc(C(=O)Nc2ccnc(Cl)c2)cc1 [Compound 261] | + (compound exhibited 0-25% inhibition of calcium ion influx induced by capsaicin stimulation) |
| CCC/C=C/c1ccc(C(=O)NCc2cccnc2)cc1 [Compound 267] | + (compound exhibited 0-25% inhibition of calcium ion influx induced by capsaicin stimulation) |
| COc1ccccc1CNC(=O)c1ccc(/C(C)=C/C(C)(C)C)cc1 [Compound 275] | + (compound exhibited 0-25% inhibition of calcium ion influx induced by capsaicin stimulation) |
| C/C(=C\C(C)(C)C)c1ccc(C(=O)NCc2ccncc2)cc1 [Compound 281] | + (compound exhibited 0-25% inhibition of calcium ion influx induced by capsaicin stimulation) |
| C/C(=C\C(C)(C)C)c1ccc(C(=O)NC(c2ccccc2)c2ccccc2)cc1 [Compound 283] | + (compound exhibited 0-25% inhibition of calcium ion influx induced by capsaicin stimulation) |
| C/C(=C\C(C)(C)C)c1ccc(C(=O)NCCc2ccccc2Cl)cc1 [Compound 286] | + (compound exhibited 0-25% inhibition of calcium ion influx induced by capsaicin stimulation) |
| C/C(=C\C(C)(C)C)c1ccc(C(=O)NC2CCC(C(C)(C)C)CC2)cc1 (stereo not shown) [Compound 287] | + (compound exhibited 0-25% inhibition of calcium ion influx induced by capsaicin stimulation) |
| C/C(=C\C(C)(C)C)c1ccc(C(=O)NCCc2ccc(S(N)(=O)=O)cc2)cc1 [Compound 304] | + (compound exhibited 0-25% inhibition of calcium ion influx induced by capsaicin stimulation) |
